Here are results for 41 compounds from patent EP3928779A1 (Chugai Seiyaku Kabushiki Kaisha, priority 2014, dated 2016).

The subject of this assay is rat small-intestinal brush border membrane vesicles. Description: Inhibitory effect on 33PO4 uptake into rat small-intestinal brush border membrane vesicles (rapid filtration method). Type of assay: biochemical. As to conditions: 33PO4 uptake into rat small-intestinal BBMVs; test compound 1 µM; reacted for 60 seconds. Put shortly: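 Uptake of ^33PO4 was measured by rapid filtration and liquid scintillation counting of filter-retained vesicles, after quenching with ice-cold 110 mM NaCl/1 mM KH2PO4/10 mM HEPES pH 7.5. Vesicles were brush border membranes from the upper small intestine of female Wistar rats aged 4–5 weeks.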
Consider `CN1N(Cc2cccc(F)c2F)C(=O)C(C(=O)Nc2ccc(C(F)(F)F)cc2-c2cc(C#N)ncn2)=C(O)C1(C)C` [Example 303], for which the “Rate of uptake inhibition (%) (1 µM)” value is on record as 42%.

Consider `CN1N(Cc2ccc(OCCN3[C@@H]4COC[C@H]3C4)c(F)c2F)C(=O)C(C(=O)Nc2ccc(C(F)(F)F)cc2-c2cc(C(F)(F)F)ncn2)=C(O)C12CCC2` [Example 339], for which the “Rate of uptake inhibition (%) (1 µM)” value worked out at 66%.

For the compound `C[C@]12CCCN1N(Cc1c(F)cccc1Cl)C(=O)C(C(=O)Nc1ccc(C(F)(F)F)cc1-c1ccc(C(F)(F)F)nc1)=C2O` [Example 204], the “Rate of uptake inhibition (%) (1 µM)” value was found to be 87%.

As for `Cc1nc(NC(=O)C2=C(O)[C@H](C(C)(C)C)N(C)N(Cc3cccc(F)c3F)C2=O)ccc1Br` [Example 241], the “Rate of uptake inhibition (%) (1 µM)” value came out at 86%.

Consider `CSc1ccc(-c2cc(C(F)(F)F)ccc2NC(=O)C2=C(O)[C@@]3(C)CCCN3N(Cc3ccc(OCCCCOC[C@H](O)CO)c(F)c3F)C2=O)cn1` [Example 120, (4aR)-1-[[4-[4-[(2R)-2,3-Dihydroxypropoxy]butoxy]-2,3-difluorophenyl]methyl]-4-hydroxy-4a-methyl-N-[2-(6-methylsulfanylpyridin-3-yl)-4-(trifluoromethyl)phenyl]-2-oxo-6,7-dihydro-5H-pyrrolo[1,2-b]pyridazine-3-carboxamide], for which the “Rate of uptake inhibition (%) (1 µM)” value worked out at 66%.

`C[C@]12CCCN1N(Cc1ccc(F)cc1F)C(=O)C(C(=O)Nc1cc(F)c(Br)c(F)c1)=C2O` [Example 192]: the “Rate of uptake inhibition (%) (1 µM)” value stood at 88%.

As for `CN1N(Cc2cccc(F)c2F)C(=O)C(C(=O)Nc2ccc(C(F)(F)F)cc2-c2ccc(S(=O)(=O)N(C)C)cc2)=C(O)C1(C)C` [Example 308], the “Rate of uptake inhibition (%) (1 µM)” value turned out to be 63%.

As to `C[C@]12CCCN1N(Cc1c(F)cccc1F)C(=O)C(C(=O)Nc1ccc(C(F)(F)F)cc1-c1ccc(C(F)(F)F)nc1)=C2O` [Example 203], the “Rate of uptake inhibition (%) (1 µM)” value is on record as 91%.

On to `C[C@]12CCCN1N(Cc1c(F)cc(OCCCCCOC[C@@H](O)CO)cc1F)C(=O)C(C(=O)Nc1ccc(C(F)(F)F)cc1-c1ccc(C(F)(F)F)nc1)=C2O` [Example 153], for which the “Rate of uptake inhibition (%) (1 µM)” value is on record as 73%.

`C[C@]12CCCN1N(Cc1ccc(OCCN3CCOCC3)c(Cl)c1)C(=O)C(C(=O)Nc1ccc(C(F)(F)F)cc1-c1ccc(C(F)(F)F)nc1)=C2O` [Example 149, (4aR)-1-[[3-Chloro-4-(2-morpholin-4-ylethoxy)phepyl]methyl]-4-hydroxy-4a-methyl-2-oxo-N-[4-(trifluoromethyl)-2-[6-(trifluoromethyl)pyridin-3-yl]phenyl]-6,7-dihydro-5H-pyrrolo[1,2-b]pyridazine-3-carboxamide]: the “Rate of uptake inhibition (%) (1 µM)” value was found to be 80%.

With `COCCOc1cc(NC(=O)C2=C(O)[C@@]3(C)CCCN3N(Cc3cccc(F)c3F)C2=O)c(-c2cccc(OC)c2OC)cc1C(F)(F)F` [Example 92], the “Rate of uptake inhibition (%) (1 µM)” value is recorded as 81%.

As to “(4aR)-4a-Ethyl-1-[(3-fluorophenyl)methyl]-4-hydroxy-N-[5-methyl-2-(trifluoromethyl)furan-3-yl]-2-oxo-6,7-dihydro-5H-pyrrolo[1,2-b]pyridazine-3-carboxamide [Example 9]”, the “Rate of uptake inhibition (%) (1 µM)” value was 63%.

Turning to `Cc1ccc(CN2C(=O)C(C(=O)Nc3ccc(C(F)(F)F)cc3-c3cc(C(F)(F)F)ncn3)=C(O)[C@@]3(C)CCCN23)cc1` [Example 187], the “Rate of uptake inhibition (%) (1 µM)” value stood at 80%.

With `C[C@]12CCCN1N(Cc1cccc(Cl)c1)C(=O)C(C(=O)Nc1ccc(C(F)(F)F)cc1-c1cc(C(F)(F)F)ncn1)=C2O` [Example 181], the “Rate of uptake inhibition (%) (1 µM)” value is given as 85%.

As for `CN1N(Cc2cccc(F)c2F)C(=O)C(C(=O)Nc2ccc(C(F)(F)F)cc2-c2cncc(C(F)(F)F)c2)=C(O)C1(C)C` [Example 305], the “Rate of uptake inhibition (%) (1 µM)” value is listed as 66%.

As to `C[C@]12CCCN1N(Cc1cc(Cl)ccc1F)C(=O)C(C(=O)Nc1ccc(C(F)(F)F)cc1-c1cc(C(F)(F)F)ncn1)=C2O` [Example 211], the “Rate of uptake inhibition (%) (1 µM)” value stood at 72%.

In the case of `CN1N(Cc2cccc(F)c2F)C(=O)C(C(=O)Nc2ccc(C(F)(F)F)cc2-c2cc(C(F)(F)F)ncn2)=C(O)C12CCCC2` [Example 260], the “Rate of uptake inhibition (%) (1 µM)” value is given as 70%.

As for `COC(=O)[C@@H]1CCCN1CCOc1ccc(CN2C(=O)C(C(=O)Nc3ccc(C(F)(F)F)cc3-c3cc(C(F)(F)F)ncn3)=C(O)C3(CCC3)N2C)c(F)c1F` [Example 355], the “Rate of uptake inhibition (%) (1 µM)” value turned out to be 36%.

As for `CN1N(Cc2ccc(OCCN3C4CCC3COC4)c(F)c2F)C(=O)C(C(=O)Nc2ccc(C(F)(F)F)cc2-c2cc(C(F)(F)F)ncn2)=C(O)C12CCC2` [Example 340], the “Rate of uptake inhibition (%) (1 µM)” value is reported as 63%.

For the compound `CSc1ccc(-c2cc(C(F)(F)F)ccc2NC(=O)C2=C(O)[C@@]3(C)CCCN3N(Cc3ccc(OCCN4CCOCC4)c(F)c3F)C2=O)cn1` [Example 103], the “Rate of uptake inhibition (%) (1 µM)” value worked out at 78%.

In the case of `C[C@]12CCCN1N(Cc1cccc(Cl)c1F)C(=O)C(C(=O)Nc1ccc(C(F)(F)F)cc1-c1ccc(C(F)(F)F)nc1)=C2O` [Example 198], the “Rate of uptake inhibition (%) (1 µM)” value amounted to 75%.

Regarding `COCCN1CC(Oc2ccc(CN3C(=O)C(C(=O)Nc4ccc(C(F)(F)F)cc4-c4cc(C(F)(F)F)ncn4)=C(O)C4(CCC4)N3C)c(F)c2F)C1` [Example 406], the “Rate of uptake inhibition (%) (1 µM)” value is on record as 27%.

On to `C#Cc1ccc(CN2C(=O)C(C(=O)Nc3ccc(C(F)(F)F)cc3-c3cc(C(F)(F)F)ncn3)=C(O)[C@@]3(C)CCCN23)c(F)c1F` [Example 126], for which the “Rate of uptake inhibition (%) (1 µM)” value is listed as 71%.

For `CN1N(Cc2ccc(OCCN3CCN(CCOCCO)CC3)c(F)c2F)C(=O)C(C(=O)Nc2ccc(C(F)(F)F)cc2-c2cc(C(F)(F)F)ncn2)=C(O)C12CCC2` [Example 361], the “Rate of uptake inhibition (%) (1 µM)” value came out at 20%.

With `CC(C)[C@H]1C(O)=C(C(=O)Nc2ccc(C(F)(F)F)cc2-c2cc(C(F)(F)F)ncn2)C(=O)N(Cc2cccc(F)c2F)N1C` [Example 252], the “Rate of uptake inhibition (%) (1 µM)” value was 53%.

Consider `CN1N(Cc2ccc(OCCCCCOCCO)c(F)c2F)C(=O)C(C(=O)Nc2ccc(C(F)(F)F)cc2-c2cc(C(F)(F)F)ncn2)=C(O)C12CCCC2` [Example 397], for which the “Rate of uptake inhibition (%) (1 µM)” value was 40%.

As to `CC(=O)N(C)CCN(C)CCOc1ccc(CN2C(=O)C(C(=O)Nc3ccc(C(F)(F)F)cc3-c3cc(C(F)(F)F)ncn3)=C(O)C3(CCC3)N2C)c(F)c1F` [Example 354], the “Rate of uptake inhibition (%) (1 µM)” value is reported as 31%.

For the compound `COc1cccc(-c2cc(C(F)(F)F)ccc2NC(=O)C2=C(O)[C@@]3(C)CCCN3N(Cc3ccc(C#CCCCCO)c(F)c3F)C2=O)c1OC` [Example 135], the “Rate of uptake inhibition (%) (1 µM)” value was 90%.

As for `COc1cccc(CN2C(=O)C(C(=O)Nc3ccc(C(F)(F)F)cc3-c3ccc(C(F)(F)F)nc3)=C(O)[C@@]3(C)CCCN23)c1OC` [Example 175], the “Rate of uptake inhibition (%) (1 µM)” value came out at 85%.

With `C[C@]12CCCN1N(Cc1c(F)cccc1Cl)C(=O)C(C(=O)Nc1ccc(C(F)(F)F)cc1-c1cc(C(F)(F)F)ncn1)=C2O` [Example 210], the “Rate of uptake inhibition (%) (1 µM)” value is listed as 71%.

As to `Cc1c(C#N)ncnc1-c1cc(C(F)(F)F)ccc1NC(=O)C1=C(O)C(C)(C)N(C)N(Cc2cccc(F)c2F)C1=O` [Example 311], the “Rate of uptake inhibition (%) (1 µM)” value worked out at 65%.

Regarding `CN1N(Cc2ccc(OCCN[C@@H](CC(=O)O)C(=O)O)c(F)c2F)C(=O)C(C(=O)Nc2ccc(C(F)(F)F)cc2-c2cc(C(F)(F)F)ncn2)=C(O)C12CCCC2` [Example 381, (2S)-2-[2-[2,3-Difluoro-4-[[10-hydroxy-6-methyl-8-oxo-9-[[4-trifluoromethyl-2-[6-(trifluoromethyl)pyrimidin-4-yl]phenyl]carbamoyl]-6,7-diazaspiro[4.5]dec-9-en-7-yl]methyl]phenoxy]ethylamino]butanedioate], the “Rate of uptake inhibition (%) (1 µM)” value is on record as 28%.

Regarding `C[C@]12CCCN1N(Cc1cccc(OC(F)F)c1)C(=O)C(C(=O)Nc1ccc(C(F)(F)F)cc1-c1cc(C(F)(F)F)ncn1)=C2O` [Example 177], the “Rate of uptake inhibition (%) (1 µM)” value is reported as 85%.

With `Cc1c(Cl)ncnc1-c1cc(C(F)(F)F)ccc1NC(=O)C1=C(O)[C@H](C(C)(C)C)N(C)N(Cc2ccc(OCCN3CCOCC3)c(F)c2F)C1=O` [Example 276], the “Rate of uptake inhibition (%) (1 µM)” value stood at 68%.

On to `CN1[C@@H](C(C)(C)C)C(O)=C(C(=O)Nc2ccc(Cl)cc2-c2cc(C#N)ncn2)C(=O)N1Cc1ccc(OCCN2CCOCC2)c(F)c1F` [Example 272], for which the “Rate of uptake inhibition (%) (1 µM)” value worked out at 43%.

`COCCOCCOc1ccc(CN2C(=O)C(C(=O)Nc3ccc(C(F)(F)F)cc3-c3cc(C(F)(F)F)ncn3)=C(O)C3(CCC3)N2C)c(F)c1F` [Example 401]: the “Rate of uptake inhibition (%) (1 µM)” value came to 39%.

Consider `CN(C)C(=O)N1CCN(CCOc2ccc(CN3C(=O)C(C(=O)Nc4ccc(C(F)(F)F)cc4-c4cc(C(F)(F)F)ncn4)=C(O)C4(CCC4)N3C)c(F)c2F)CC1` [Example 364], for which the “Rate of uptake inhibition (%) (1 µM)” value was 36%.

Regarding `COCCN(C)CCOc1ccc(CN2C(=O)C(C(=O)Nc3ccc(C(F)(F)F)cc3-c3cc(C(F)(F)F)ncn3)=C(O)C3(CCC3)N2C)c(F)c1F` [Example 13, 6-[[2,3-Difluoro-4-[2-[2-methoxyethyl(methyl)amino]ethoxy]phenyl]methyl]-9-hydroxy-5-methyl-7-oxo-N-[4-(trifluoromethyl)-2-[6-(trifluoromethyl)pyrimidin-4-yl]phenyl]-5,6-diazaspiro[3.5]non-8-ene-8-carboxamide], the “Rate of uptake inhibition (%) (1 µM)” value is reported as 58%.

Regarding `CC(CN1CCOCC1)Oc1ccc(CN2C(=O)C(C(=O)Nc3ccc(C(F)(F)F)cc3-c3cc(C(F)(F)F)ncn3)=C(O)C3(CCC3)N2C)c(F)c1F` (centres unmarked) [Example 408], the “Rate of uptake inhibition (%) (1 µM)” value is recorded as 47%.

`CN1N(Cc2cccc(F)c2F)C(=O)C(C(=O)Nc2cc(C(F)(F)F)ccc2-c2ccc(C(F)(F)F)nc2)=C(O)C1(C)C` [Example 307]: the “Rate of uptake inhibition (%) (1 µM)” value is given as 41%.

With `CN1N(Cc2ccc(OCCN3CCN(S(C)(=O)=O)CC3)c(F)c2F)C(=O)C(C(=O)Nc2ccc(C(F)(F)F)cc2-c2cc(C(F)(F)F)ncn2)=C(O)C12CCC2` [Example 363], the “Rate of uptake inhibition (%) (1 µM)” value was 11%.
